Data: ChEMBL document CHEMBL4706549, “Isoquinolinone derivatives as potent CNS multi-receptor D/5-HT/5-HT/5-HT/5-HT agents: Synthesis and pharmacological evaluation” (Eur J Med Chem, 2020)
Activity calls are given as the source filed them. The calls are words filed in the database; no cut-off is given here.

Columns and labels:
D(2) dopamine receptor [1] = target: D(2) dopamine receptor (Rattus norvegicus, UniProt P61169); experiment: biochemical
Description: Displacement of [3H]spiperone from D2 receptor in rat striatum measured after 15 mins by liquid scintillation counting method

[2] = target: T1, 5-hydroxytryptamine receptor 1A (Rattus norvegicus, UniProt P19327); experiment: biochemical
T1 sequence (P19327 whole entry): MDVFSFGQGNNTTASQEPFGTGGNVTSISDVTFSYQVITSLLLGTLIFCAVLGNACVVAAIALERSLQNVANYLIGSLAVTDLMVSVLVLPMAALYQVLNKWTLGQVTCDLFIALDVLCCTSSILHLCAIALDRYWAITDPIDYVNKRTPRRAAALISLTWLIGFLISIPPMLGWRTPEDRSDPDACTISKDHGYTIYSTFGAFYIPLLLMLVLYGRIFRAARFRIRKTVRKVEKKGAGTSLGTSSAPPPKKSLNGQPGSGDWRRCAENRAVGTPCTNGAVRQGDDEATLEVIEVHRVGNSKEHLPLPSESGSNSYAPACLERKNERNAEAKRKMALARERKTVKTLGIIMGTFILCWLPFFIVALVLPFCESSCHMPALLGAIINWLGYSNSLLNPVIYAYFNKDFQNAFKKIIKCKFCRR
Description: Displacement of [3H](+)8-OH-DPAT from rat cerebral cortex 5HT1A receptor measured after 30 mins by liquid scintillation counting method

[3] = target: 5-hydroxytryptamine receptor 2A (Rattus norvegicus, UniProt P14842); experiment: biochemical
Rattus norvegicus = experiment: Cognitive enhancement effect in Sprague-Dawley rat assessed as increase in time spent in exploring novel object at 0.2 mg/kg, po administered 1 hr prior to acquisition trial and measured after 24 hrs by novel object recognition test; type: functional, organism-based
[4] = Effect on total exploration time in Sprague-Dawley rat at 0.2 mg/kg, po measured after 1 hr by novel object recognition test; type: ADME, organism-based; conditions: in vivo
Histamine H1 receptor [5] = target: Histamine H1 receptor (Homo sapiens, UniProt P35367); experiment: Binding affinity to H1 receptor (unknown origin)
D(3) dopamine receptor = D(3) dopamine receptor (Homo sapiens, UniProt P35462)
Description: Binding affinity to D3 receptor (unknown origin)

[6] = target: 5-hydroxytryptamine receptor 1A (Homo sapiens, UniProt P08908); experiment: Binding affinity to 5HT1A receptor (unknown origin)
[7] = target: 5-hydroxytryptamine receptor 2C (Homo sapiens, UniProt P28335); experiment: Binding affinity to 5HT2C receptor (unknown origin)
D(2) dopamine receptor [8] = target: D(2) dopamine receptor (Homo sapiens, UniProt P14416); experiment: Binding affinity to D2 receptor (unknown origin)
[9] = target: T2, 5-hydroxytryptamine receptor 2A (Homo sapiens, UniProt P28223); experiment: Binding affinity to 5HT2A receptor (unknown origin)
[10] = Effect on spontaneous locomotor activity in Kunming mouse assessed as total distance traveled at 10 mg/kg, ig measured after 1 hr (reference value: 13579 +/- 8864 millimeter); type: ADME, organism-based; conditions: in vivo, po
[11] = Effect on spontaneous locomotor activity in Kunming mouse assessed as total distance traveled at 3 mg/kg, ig measured after 1 hr (reference value: 13579 +/- 8864 millimeter); type: ADME, organism-based; conditions: in vivo, po
[12] = Effect on spontaneous locomotor activity in Kunming mouse assessed as total distance traveled at 1 mg/kg, ig measured after 1 hr (reference value: 13579 +/- 8864 millimeter); type: ADME, organism-based; conditions: in vivo, po
[13] = target: 5-hydroxytryptamine receptor 7 (Rattus norvegicus, UniProt P32305); experiment: biochemical
[14] = target: 5-hydroxytryptamine receptor 6 (Homo sapiens, UniProt P50406)
Description: Displacement of [3H]lysergic acid diethylamide from human recombinant 5HT6 receptor stably expressed in CHO cell membranes measured after 30 mins by liquid scintillation counting method

[15] = target: Adrenergic receptor alpha-1 (Rattus norvegicus, UniProt P15823+P23944+P43140)
Description: Displacement of [3H]prazosin from rat cerebral cortex alpha1 adrenergic receptor measured after 60 mins by liquid scintillation counting method

Histamine H1 receptor [16] = target: Histamine H1 receptor (Cavia porcellus, UniProt P31389)
Description: Displacement of [3H]pyrilamine from guinea pig cerebellum histamine H1 receptor measured after 60 mins by liquid scintillation counting method

[17] = target: 5-hydroxytryptamine receptor 2C (Rattus norvegicus, UniProt P08909)
Description: Displacement of [3H]mesulergine from rat cerebral cortex 5HT2C receptor measured after 15 mins by liquid scintillation counting method

Mus musculus [18] = organism: Mus musculus; experiment: animal or person; conditions: Kunming, po
Mus musculus [19] = organism: Mus musculus; experiment: animal or person; conditions: Kunming, po; remark: listed apart in the source
Description: Antipsychotic activity in Kunming mouse assessed as inhibition of MK801-induced locomotor activity administered orally 30 mins prior to MK801 challenge and measured for 90 mins

[20] = Toxicity in Kunming mouse assessed as change in body weight at 0.1 to 0.3 mg/kg, po administered for 28 days measured daily during compound dosing; type: organism-based; conditions: in vivo, 672 h, dose 0.1-0.3 mg/kg, time 28 day
[21] = mouse, in vivo, po
Description: Toxicity in po dosed Kunming mouse assessed as catalepsy

Mus musculus [22] = organism: Mus musculus; experiment: animal or person; conditions: Kunming, po, 1.333 h
[23] = target: Adrenergic receptor alpha-2 (Homo sapiens, UniProt P08913+P18825+P18089); experiment: Binding affinity to alpha2 adrenergic receptor (unknown origin); type: protein assay
[24] = target: Voltage-gated inwardly rectifying potassium channel KCNH2 (Homo sapiens, UniProt Q12809)
Description: Inhibition of human ERG expressed in HEK293 cells by whole-cell patch clamp method

[25] = target: Sodium-dependent noradrenaline transporter (Homo sapiens, UniProt P23975); experiment: Binding affinity to NET (unknown origin)
D(1A) dopamine receptor = D(1A) dopamine receptor (Homo sapiens, UniProt P21728); experiment: Binding affinity to D1 receptor (unknown origin)
Histamine H3 receptor = Histamine H3 receptor (Homo sapiens, UniProt Q9Y5N1); experiment: Binding affinity to H3 receptor (unknown origin)
[26] = target: Sigma non-opioid intracellular receptor 1 (Homo sapiens, UniProt Q99720); experiment: Binding affinity to sigma 1 receptor (unknown origin)
[27] = target: Sodium-dependent serotonin transporter (Homo sapiens, UniProt P31645); experiment: Binding affinity to SERT (unknown origin)
[28] = target: T2, 5-hydroxytryptamine receptor 2A; experiment: Antagonist activity at human 5HT2A receptor expressed in CHO-K1 cells assessed as inhibition of 5HT-induced calcium flux incubated for 60 mins at 37 degC followed by 15 mins incubation at room temperature and subsequent 5HT addition by calcium 4 dye based FLIPR assay; type: functional, cell-based
[29] = target: Sodium-dependent dopamine transporter (Homo sapiens, UniProt Q01959); experiment: Binding affinity to DAT (unknown origin)
[30] = target: Sigma intracellular receptor 2 (Homo sapiens, UniProt Q5BJF2); experiment: Binding affinity to sigma 2 receptor (unknown origin)
[31] = Displacement of [3H]ketanserin from human 5HT2A receptor expressed in CHO-K1 cells measured after 20 mins
[32] = Therapeutic index, ratio of ED50 for toxicity in po dosed Kunming mouse assessed as catalepsy to ED50 for antipsychotic activity in Kunming mouse assessed as inhibition of MK801-induced locomotor activity; type: organism-based; conditions: in vivo, read-out: Ratio ED50
[33] = Therapeutic index, ratio of ED50 for toxicity in po dosed Kunming mouse assessed as catalepsy to ED50 for antipsychotic activity in Kunming mouse assessed as inhibition of apomorphine-induced climbing behavior; type: organism-based; conditions: in vivo, read-out: Ratio ED50

Chain of 5-hydroxytryptamine receptor 2A (Rattus norvegicus, UniProt P14842) (P14842 whole entry): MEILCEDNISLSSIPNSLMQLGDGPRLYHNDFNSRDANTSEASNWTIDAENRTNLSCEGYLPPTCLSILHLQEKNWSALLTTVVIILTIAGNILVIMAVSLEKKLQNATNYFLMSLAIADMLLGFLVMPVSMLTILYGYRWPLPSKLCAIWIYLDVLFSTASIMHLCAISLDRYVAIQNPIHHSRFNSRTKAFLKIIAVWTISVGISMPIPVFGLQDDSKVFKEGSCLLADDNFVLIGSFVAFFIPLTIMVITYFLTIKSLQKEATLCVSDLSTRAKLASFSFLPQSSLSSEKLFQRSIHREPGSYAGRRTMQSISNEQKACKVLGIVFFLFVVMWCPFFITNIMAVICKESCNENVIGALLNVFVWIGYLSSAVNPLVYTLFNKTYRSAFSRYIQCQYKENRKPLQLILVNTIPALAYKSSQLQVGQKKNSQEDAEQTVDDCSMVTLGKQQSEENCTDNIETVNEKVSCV
Chain of D(2) dopamine receptor (Rattus norvegicus, UniProt P61169) (P61169 whole entry): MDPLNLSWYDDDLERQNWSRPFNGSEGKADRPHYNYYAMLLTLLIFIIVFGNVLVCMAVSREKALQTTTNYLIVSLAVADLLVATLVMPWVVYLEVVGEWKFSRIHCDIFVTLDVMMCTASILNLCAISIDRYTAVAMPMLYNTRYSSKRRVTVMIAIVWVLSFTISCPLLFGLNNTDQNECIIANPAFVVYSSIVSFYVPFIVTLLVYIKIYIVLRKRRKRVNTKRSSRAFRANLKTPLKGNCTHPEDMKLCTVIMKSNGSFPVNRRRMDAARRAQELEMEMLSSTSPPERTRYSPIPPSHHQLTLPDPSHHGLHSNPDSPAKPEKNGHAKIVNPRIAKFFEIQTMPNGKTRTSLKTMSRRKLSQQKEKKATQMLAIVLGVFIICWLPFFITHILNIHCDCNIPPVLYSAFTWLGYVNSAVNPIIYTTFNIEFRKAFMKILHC
Chain of D(3) dopamine receptor (P35462 whole entry): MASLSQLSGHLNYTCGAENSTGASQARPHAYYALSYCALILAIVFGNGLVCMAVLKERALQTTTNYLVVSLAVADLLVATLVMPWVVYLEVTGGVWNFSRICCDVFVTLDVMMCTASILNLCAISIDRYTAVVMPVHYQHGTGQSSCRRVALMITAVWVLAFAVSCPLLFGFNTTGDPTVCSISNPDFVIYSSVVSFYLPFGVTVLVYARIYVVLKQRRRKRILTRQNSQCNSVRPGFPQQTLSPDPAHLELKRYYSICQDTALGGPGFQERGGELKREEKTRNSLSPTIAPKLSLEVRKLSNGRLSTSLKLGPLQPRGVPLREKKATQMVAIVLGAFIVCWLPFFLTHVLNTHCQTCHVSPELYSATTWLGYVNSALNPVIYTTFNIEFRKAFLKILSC
Chain of 5-hydroxytryptamine receptor 2C (Rattus norvegicus, UniProt P08909) (P08909 whole entry): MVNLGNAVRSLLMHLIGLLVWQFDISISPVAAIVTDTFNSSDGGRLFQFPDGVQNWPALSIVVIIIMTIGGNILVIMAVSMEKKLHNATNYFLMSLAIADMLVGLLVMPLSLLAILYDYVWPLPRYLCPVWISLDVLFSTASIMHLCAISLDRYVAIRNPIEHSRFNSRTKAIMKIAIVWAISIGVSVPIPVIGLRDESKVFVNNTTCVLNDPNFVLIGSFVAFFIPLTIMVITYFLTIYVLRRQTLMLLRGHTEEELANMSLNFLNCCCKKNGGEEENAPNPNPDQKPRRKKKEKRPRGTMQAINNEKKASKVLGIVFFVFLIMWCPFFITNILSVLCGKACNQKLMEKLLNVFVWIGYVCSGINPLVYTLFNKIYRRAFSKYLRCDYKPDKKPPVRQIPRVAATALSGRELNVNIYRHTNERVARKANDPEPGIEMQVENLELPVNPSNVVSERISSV
Chain of 5-hydroxytryptamine receptor 7 (P32305 whole entry): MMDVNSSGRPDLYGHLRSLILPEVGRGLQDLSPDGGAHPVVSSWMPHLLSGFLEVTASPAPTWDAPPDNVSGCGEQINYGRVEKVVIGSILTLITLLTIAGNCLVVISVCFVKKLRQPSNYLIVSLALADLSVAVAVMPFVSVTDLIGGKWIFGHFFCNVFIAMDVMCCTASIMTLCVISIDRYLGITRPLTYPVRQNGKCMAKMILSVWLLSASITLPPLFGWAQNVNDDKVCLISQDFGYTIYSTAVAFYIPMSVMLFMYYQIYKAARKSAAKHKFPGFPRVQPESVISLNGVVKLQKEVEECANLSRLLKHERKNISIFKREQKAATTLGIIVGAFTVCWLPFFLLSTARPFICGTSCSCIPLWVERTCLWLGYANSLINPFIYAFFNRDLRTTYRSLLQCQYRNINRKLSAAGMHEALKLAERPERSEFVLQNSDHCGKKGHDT
Chain of Histamine H1 receptor (Cavia porcellus, UniProt P31389) (P31389 whole entry): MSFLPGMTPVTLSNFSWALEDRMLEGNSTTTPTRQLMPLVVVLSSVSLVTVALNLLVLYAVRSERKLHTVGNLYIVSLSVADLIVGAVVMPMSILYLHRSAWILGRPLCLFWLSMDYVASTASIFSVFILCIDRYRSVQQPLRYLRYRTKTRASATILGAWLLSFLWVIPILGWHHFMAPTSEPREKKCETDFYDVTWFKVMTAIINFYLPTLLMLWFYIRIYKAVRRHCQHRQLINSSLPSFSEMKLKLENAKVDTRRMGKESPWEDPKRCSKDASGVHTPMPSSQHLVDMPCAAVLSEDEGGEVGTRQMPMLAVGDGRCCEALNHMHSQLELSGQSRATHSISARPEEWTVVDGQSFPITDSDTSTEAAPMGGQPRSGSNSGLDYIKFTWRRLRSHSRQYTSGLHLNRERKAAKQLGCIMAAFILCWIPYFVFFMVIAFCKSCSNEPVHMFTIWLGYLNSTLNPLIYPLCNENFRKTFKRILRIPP
T2 sequence (P28223 whole entry): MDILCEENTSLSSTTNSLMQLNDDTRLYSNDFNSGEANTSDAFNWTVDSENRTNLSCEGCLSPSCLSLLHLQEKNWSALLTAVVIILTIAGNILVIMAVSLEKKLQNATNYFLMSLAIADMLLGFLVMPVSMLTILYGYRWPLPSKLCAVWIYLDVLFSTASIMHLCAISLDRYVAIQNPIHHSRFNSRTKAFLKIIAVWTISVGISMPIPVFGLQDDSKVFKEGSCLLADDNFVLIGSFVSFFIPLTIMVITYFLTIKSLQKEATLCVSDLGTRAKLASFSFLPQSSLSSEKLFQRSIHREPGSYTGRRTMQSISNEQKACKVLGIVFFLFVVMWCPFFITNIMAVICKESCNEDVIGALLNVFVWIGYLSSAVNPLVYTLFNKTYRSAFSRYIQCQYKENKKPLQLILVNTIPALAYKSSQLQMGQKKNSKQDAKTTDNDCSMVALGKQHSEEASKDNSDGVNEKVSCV
Chain of Histamine H3 receptor (Q9Y5N1 whole entry): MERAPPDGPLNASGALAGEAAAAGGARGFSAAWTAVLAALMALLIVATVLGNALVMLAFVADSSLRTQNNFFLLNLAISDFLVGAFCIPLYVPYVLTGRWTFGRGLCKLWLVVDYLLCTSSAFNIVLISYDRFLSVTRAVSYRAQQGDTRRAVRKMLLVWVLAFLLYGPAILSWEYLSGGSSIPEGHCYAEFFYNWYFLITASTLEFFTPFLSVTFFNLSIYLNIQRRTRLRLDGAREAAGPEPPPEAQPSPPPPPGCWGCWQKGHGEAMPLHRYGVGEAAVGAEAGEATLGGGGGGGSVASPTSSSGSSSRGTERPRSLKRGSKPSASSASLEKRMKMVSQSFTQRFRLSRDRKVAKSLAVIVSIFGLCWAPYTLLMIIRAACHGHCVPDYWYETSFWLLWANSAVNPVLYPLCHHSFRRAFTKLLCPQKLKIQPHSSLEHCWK
Chain of 5-hydroxytryptamine receptor 6 (P50406 whole entry): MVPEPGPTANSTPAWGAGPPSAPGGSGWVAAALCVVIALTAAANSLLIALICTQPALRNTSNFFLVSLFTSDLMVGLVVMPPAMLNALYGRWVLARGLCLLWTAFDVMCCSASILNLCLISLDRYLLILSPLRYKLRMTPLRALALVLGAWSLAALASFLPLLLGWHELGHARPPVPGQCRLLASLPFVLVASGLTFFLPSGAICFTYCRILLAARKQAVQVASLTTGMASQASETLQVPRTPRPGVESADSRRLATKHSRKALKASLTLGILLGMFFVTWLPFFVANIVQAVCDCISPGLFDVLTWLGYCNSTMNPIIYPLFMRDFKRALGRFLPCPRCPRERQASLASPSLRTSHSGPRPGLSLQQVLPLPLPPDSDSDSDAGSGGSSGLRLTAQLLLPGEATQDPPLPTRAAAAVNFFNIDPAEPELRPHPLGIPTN
Chain of 5-hydroxytryptamine receptor 1A (Homo sapiens, UniProt P08908) (P08908 whole entry): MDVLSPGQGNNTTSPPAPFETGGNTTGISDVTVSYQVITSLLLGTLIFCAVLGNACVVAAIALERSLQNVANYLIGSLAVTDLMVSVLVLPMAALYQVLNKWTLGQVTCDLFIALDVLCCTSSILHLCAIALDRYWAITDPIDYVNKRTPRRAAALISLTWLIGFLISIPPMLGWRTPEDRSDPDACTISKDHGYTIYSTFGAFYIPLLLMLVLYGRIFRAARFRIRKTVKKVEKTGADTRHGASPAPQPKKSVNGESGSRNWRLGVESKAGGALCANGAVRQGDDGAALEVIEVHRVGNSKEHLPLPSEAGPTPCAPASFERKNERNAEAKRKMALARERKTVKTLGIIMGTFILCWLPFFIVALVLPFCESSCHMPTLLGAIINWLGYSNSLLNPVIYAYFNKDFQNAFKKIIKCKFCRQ
Chain of D(2) dopamine receptor (Homo sapiens, UniProt P14416) (P14416 whole entry): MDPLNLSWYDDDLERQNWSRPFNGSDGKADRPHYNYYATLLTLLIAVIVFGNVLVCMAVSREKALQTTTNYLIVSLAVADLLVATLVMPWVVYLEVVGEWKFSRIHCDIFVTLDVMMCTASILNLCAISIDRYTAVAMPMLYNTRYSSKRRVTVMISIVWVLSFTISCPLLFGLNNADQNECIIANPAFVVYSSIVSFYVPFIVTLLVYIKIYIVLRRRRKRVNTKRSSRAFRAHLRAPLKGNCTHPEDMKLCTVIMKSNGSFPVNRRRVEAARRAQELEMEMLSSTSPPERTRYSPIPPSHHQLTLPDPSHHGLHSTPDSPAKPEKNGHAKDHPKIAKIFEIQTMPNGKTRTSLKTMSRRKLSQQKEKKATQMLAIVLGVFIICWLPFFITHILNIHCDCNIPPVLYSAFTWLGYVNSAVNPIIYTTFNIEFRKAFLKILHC

| Structure (SMILES) | Ki (D(2) dopamine receptor [1]) [nM] | Ki [2] [nM] | Ki [3] [nM] | further results |
| --- | --- | --- | --- | --- |
| CN1CCc2cc(OCCCN3CCC(c4noc5cc(F)ccc45)CC3)ccc2C1=O | > 10000 | > 10000 | 692 |  |
| CCN(C)C(=O)Oc1cccc([C@H](C)N(C)C)c1 [RIVASTIGMINE] |  |  |  | Activity (Rattus norvegicus): Active; Activity [4]: Non-Toxic |
| O=C(CCCCN1CCC(c2noc3cc(F)ccc23)CC1)c1cc2c3c(c1)CCN3C(=O)CC2 |  |  |  | Ki (Histamine H1 receptor [5]): 630 nM; Ki (D(3) dopamine receptor): 1.66 nM; Ki [6]: 8.6 nM; Ki [7]: 616 nM; Ki (D(2) dopamine receptor [8]): 2.9 nM; Ki [9]: 0.72 nM |
| CC1CCc2ccc(OCCCCN3CCC(c4nsc5ccccc45)CC3)cc2C1=O (stereo unspecified) | > 10000 | 1300 | 890 |  |
| O=C1CN=C(c2ccccc2Cl)c2cc([N+](=O)[O-])ccc2N1 [CLONAZEPAM] |  |  |  | Activity [10]: 762 mm; Activity [11]: 5784 mm; Activity [12]: 12188 mm |
| CN1CCc2ccc(OCCCN3CCN(c4ccc5ccccc5n4)CC3)cc2C1=O | > 10000 | 10.2 | > 10000 |  |
| CN1CCc2ccc(OCCCN3CCN(Cc4ccc5c(c4)OCO5)CC3)cc2C1=O | > 10000 | 18.3 | 25.9 |  |
| CN1CCc2ccc(OCCN3CCC(c4noc5cc(F)ccc45)CC3)cc2C1=O | 568 | > 10000 | > 10000 |  |
| CN1CCc2ccc(OCCCN3CCN(c4ccc(F)cc4)CC3)cc2C1=O | 532 | 158 | 246 |  |
| CN1CCc2ccc(OCCCN3CCN(c4ccccc4)CC3)cc2C1=O | > 10000 | > 10000 | > 10000 |  |
| Cn1ccc2ccc(OCCCN3CCC(c4noc5cc(F)ccc45)CC3)cc2c1=O | 9.2 | 12.1 | 3.5 | Ki [13]: 109 nM; Ki [14]: 167 nM; Ki [15]: 718 nM; Ki (Histamine H1 receptor [16]): 118 nM; Ki [17]: 129 nM |
| CN1CCc2ccc(OCCCN3CCN(c4ccccc4F)CC3)cc2C1=O | 117 | 262 | 306 |  |
| Cc1nc2n(c(=O)c1CCN1CCC(c3noc4cc(F)ccc34)CC1)CCCC2 [RISPERIDONE] |  |  |  | ED50 (Mus musculus [18]): 0.02 mg/kg; ED50 (Mus musculus [19]): 0.04 mg/kg; Activity [20]: Toxic; ED50 [21]: 1.62 mg/kg; ED50 (Mus musculus [22]): 0.04 mg/kg; Activity [4]: Non-Toxic |
| CN1CCc2ccc(OCCCN3CCN(c4ccccc4Cl)CC3)cc2C1=O | 391 | 89.2 | 179 |  |
| CN1CCc2ccc(OCCCN3CCC(c4noc5cc(F)ccc45)CC3)cc2C1=O |  | 9.1 | 0.65 | Ki [23]: > 1000 nM; Ki [13]: 4.9 nM; IC50 [24]: 2310 nM; Ki [25]: > 1000 nM; Ki (D(1A) dopamine receptor): > 1000 nM; Ki [15]: 991 nM; Ki (Histamine H3 receptor): > 1000 nM; Ki [26]: > 1000 nM; Ki (Histamine H1 receptor [16]): 1200 nM; Ki (D(3) dopamine receptor): 226 nM; Ki [27]: > 1000 nM; Ki [17]: 1690 nM; IC50 [28]: 46.3 nM; Ki [29]: > 1000 nM; Ki [30]: > 1000 nM |
| CN1CCc2ccc(OCCCN3CCN(c4cccc5sccc45)CC3)cc2C1=O |  | 65.2 |  |  |
| COc1ccc(N2CCN(CCCOc3ccc4c(c3)C(=O)N(C)CC4)CC2)cc1 | > 10000 | > 10000 | > 10000 |  |
| CCN1CCc2ccc(OCCCN3CCC(c4noc5cc(F)ccc45)CC3)cc2C1=O | 249 | 198 | 92.1 |  |

| Structure (SMILES) | Ki (D(2) dopamine receptor [1]) [nM] | Ki [2] [nM] | Ki [3] [nM] | further results |
| --- | --- | --- | --- | --- |
| CN1CCc2ccc(OCC(O)CN3CCC(c4noc5cc(F)ccc45)CC3)cc2C1=O (stereo unspecified) | 1240 | 856 | 768 |  |
| CN1CCc2ccc(OCCCN3CCN(c4cccc(Cl)c4Cl)CC3)cc2C1=O | 68.2 | 20.1 | 16.8 |  |
| CN1CCc2ccc(OCCCN3CCN(c4cccc(C(F)(F)F)c4)CC3)cc2C1=O | 123 | 1040 | 102 |  |
| CN1CCc2ccc(OCCCCN3CCN(c4cccc(Cl)c4Cl)CC3)cc2C1=O | 316 | 119 | 216 |  |
| O=c1ccc2ccc(OCCCCN3CCN(c4cccc5sccc45)CC3)cc2[nH]1 [BREXPIPRAZOLE] |  |  |  | Ki [31]: 0.47 nM |
| CN1CCc2ccc(OCCCN3CCC(C(=O)c4ccc(F)cc4F)CC3)cc2C1=O | 902 | > 10000 | > 10000 |  |
| COc1ccccc1N1CCN(CCCOc2ccc3c(c2)C(=O)N(C)CC3)CC1 | 896 | 1110 | 992 |  |
| CN1CCc2ccc(OCCCCN3CCN(c4cccc5sccc45)CC3)cc2C1=O | 162 | 431 |  |  |
| CN1CCc2ccc(OCCCCN3CCN(c4cccc(C(F)(F)F)c4)CC3)cc2C1=O | 261 | 1040 | 132 |  |
| CN1CCc2ccc(OCCCN3CCN(c4ncccn4)CC3)cc2C1=O | 1370 | 59.3 | 65.3 |  |
| CN1CCc2ccc(OCC(F)CN3CCC(c4noc5cc(F)ccc45)CC3)cc2C1=O (stereo unspecified) | 359 | 68.2 | 23.7 |  |
| CN1CCc2ccc(OCCCN3CCN(c4ccccn4)CC3)cc2C1=O | > 10000 | > 10000 | 1160 |  |
| COc1ccccc1N1CCN(CCCCOc2ccc3c(c2)C(=O)N(C)CC3)CC1 | > 10000 | > 10000 | > 10000 |  |
| O=C(CCCN1CCC(O)(c2ccc(Cl)cc2)CC1)c1ccc(F)cc1 [HALOPERIDOL] |  |  |  | ED50 (Mus musculus [18]): 0.09 mg/kg; ED50 (Mus musculus [19]): 0.11 mg/kg; ED50 [21]: 0.32 mg/kg; selectivity ratio [32]: 2.9; selectivity ratio [33]: 3.5 |
| CN1CCc2ccc(OCCCCN3CCC(c4noc5cc(F)ccc45)CC3)cc2C1=O | 41.6 | 30.6 | 28.3 |  |
| CN1CCc2ccc(OCCCN3CCN(c4ccc(Cl)cc4)CC3)cc2C1=O | 268 | 356 | 589 |  |
| CN1COc2ccc(OCCCN3CCC(c4noc5cc(F)ccc45)CC3)cc2C1=O | 698 | 187 | 598 |  |
